In PMC5362474 (Oncotarget, 2017):

Experiments:
Bel-7402 cells = experiment: MTT proliferation assay on Bel-7402 cells; format: cell-based; details: Homo sapiens
Method: (§1) MTT assay was then applied at 24 h, 48 h. […] However, all the compounds were active against Bel-7402, HepG2, A549 and HeLa cells to some extent. […] Before we began to design these compounds, we carefully studied these references. […] Hu C T, et al., Wang SY, et al. and Xie B, et al. reported that HepG2 was inhibited by inhibiting c-Met/HGF signaling pathway. […] Further research works on activities are currently under investigation and will be reported in due course. […] Proliferation of cells was evaluated by MTT assay. Cells were inoculated at 1.0 × 10^4 cells/mL with 200 μL in each well of 96-well plate and allowed to adhere to the plates overnight. […] After removal of the medium, cells were treated with 150 μL of DMSO and shaken for 15 min to completely dissolve the formazan crystals. The absorbances at 590 nm of the dissolved solutions were detected using a SpectraMAX190 microplate reader (Molecular Devices, USA).

Hela cells = experiment: MTT proliferation assay on HeLa cells; format: cell-based; details: Homo sapiens
Method: as §1

[1] = biological target: T1, recombinant human c-Met residues 974-end (Homo sapiens, UniProt P08581); experiment: Inhibition of c-Met kinase (TR-FRET); format: biochemical; details: for inhibition at 0.19 µM / inhibition at 0.39 µM / inhibition at 0.78 µM / inhibition at 1.56 µM / inhibition at 3.12 µM / inhibition at 6.25 µM / inhibition at 12.5 µM / inhibition at 25 µM / inhibition at 50 µM / inhibition at 100 µM: read-out: Inhibitory rate on c-Met kinase; for inhibition at 12.5 µM: 12.50 μM; for IC50: TR-FRET, read-out: IC50 against c-Met kinase; for c-Met Inhibition rate (%): concentration not given
T1 construct: recombinant human c-Met residues 974-end; 6His; purchased Millipore
T1 sequence (P08581 974-1390 limits assumed): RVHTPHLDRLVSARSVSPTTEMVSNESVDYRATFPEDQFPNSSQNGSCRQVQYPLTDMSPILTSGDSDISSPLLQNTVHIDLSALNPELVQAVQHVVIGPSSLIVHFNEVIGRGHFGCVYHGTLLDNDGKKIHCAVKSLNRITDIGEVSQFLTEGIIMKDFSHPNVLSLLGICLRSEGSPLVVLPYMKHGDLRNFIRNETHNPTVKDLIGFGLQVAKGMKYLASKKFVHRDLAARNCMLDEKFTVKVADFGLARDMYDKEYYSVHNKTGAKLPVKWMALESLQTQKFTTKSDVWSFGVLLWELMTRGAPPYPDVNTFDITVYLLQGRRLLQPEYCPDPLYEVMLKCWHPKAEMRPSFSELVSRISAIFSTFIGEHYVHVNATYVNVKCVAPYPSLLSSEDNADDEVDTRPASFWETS
Method: The inhibitions of c-Met kinase were investigated referred to a published literature. The IC50 values were detected using TR-FRET. 50 nM 6 His-tagged recombinant human c-Met residues 974-end (Millipore) was cultured in medium containing 2.5 m mol/L MnCl2, 10 m mol/L MgCl2, 20 m mol/L Tris, 2 m mol/L DTT and 0.01% Tween 20 with 5 m mol/L ATP and 200 n mol/L 5FAM-KKK -[…]-NH2 with 25 μL at room temperature for 60 min. Compounds were made up to 100 μM solutions and were tested with 10 concentration gradients by two times dilutions. Each group was tested for three times Reactions were termined by IMAP stop solution. Plates were incubated for an overnight and analyzed by using AiphaQuest.

A549 cells = experiment: MTT proliferation assay on A549 cells; format: cell-based; details: Homo sapiens
Method: as §1

HepG2 cells = experiment: MTT proliferation assay on HepG2 cells; format: cell-based; details: Homo sapiens
Method: as §1

Row | IC50 (Bel-7402 cells; 24 h) [µM] | IC50 (Bel-7402 cells; 48 h) [µM] | IC50 (Hela cells; 24 h) [µM] | IC50 (Hela cells; 48 h) [µM] | inhibition at 0.19 µM [1] [%] | inhibition at 0.39 µM [1] [%] | inhibition at 0.78 µM [1] [%] | inhibition at 1.56 µM [1] [%] | inhibition at 3.12 µM [1] [%] | inhibition at 6.25 µM [1] [%] | inhibition at 12.5 µM [1] [%] | inhibition at 25 µM [1] [%] | inhibition at 50 µM [1] [%] | inhibition at 100 µM [1] [%] | IC50 [1] [µM] | c-Met Inhibition rate (%) [1] [%] | IC50 (A549 cells; 24 h) [µM] | IC50 (A549 cells; 48 h) [µM] | IC50 (HepG2 cells; 24 h) [µM] | IC50 (HepG2 cells; 48 h) [µM] | SMILES
1 | 75.5 ± 1.05 | 78.55 ± 0.51 | 84.1 ± 0.71 | 82.54 ± 0.64 | 33.8 ± 0.45 | 42.6 ± 0.51 | 48 ± 0.62 | 59.6 ± 0.66 | 64.5 ± 0.73 | 70 ± 0.81 | 73.79 ± 0.69 | 78.9 ± 0.87 | 83.7 ± 0.95 | 87.4 ± 1.2 | 0.83 | 47 | 88.52 ± 0.53 | 87.2 ± 0.94 | 70.2 ± 0.87 | 67.84 ± 0.48 | CC(C)=C1C/C=C(\C)CC/C=C(\C)CC1OC(=O)c1cccc(C)c1 (centres unmarked) [Compound 3c, (3E,7E)-3,7-dimethyl-10-(propan-2-ylidene)cyclodeca-3,7-dien-1-yl-3-methylbenzoate]
2 | 80.1 ± 1.19 | 77.56 ± 0.77 | 91.25 ± 0.87 | 93.31 ± 0.9 | 31.56 ± 0.27 | 40.88 ± 0.35 | 47.08 ± 0.44 | 59.03 ± 0.57 | 64.22 ± 0.59 | 69 ± 0.74 | 75.5 ± 0.88 | 80.6 ± 0.84 | 85.4 ± 0.96 | 87.7 ± 0.95 | 0.92 | 38 | 93.48 ± 0.79 | 95.9 ± 0.97 | 74.7 ± 0.99 | 78.85 ± 0.77 | CC(C)=C1C/C=C(\C)CC/C=C(\C)CC1OC(=O)c1ccc(C(F)(F)F)cc1 (centres unmarked) [Compound 3d, (3E,7E)-3,7-dimethyl-10-(propan-2-ylidene)cyclodeca-3,7-dien-1-yl-4-(trifluoromethyl)benzoate]
3 | 75.9 ± 0.81 | 79.2 ± 0.89 | 86.55 ± 0.8 | 88.24 ± 0.84 | 28.28 ± 0.22 | 42.75 ± 0.35 | 48.01 ± 0.39 | 61.4 ± 0.64 | 67.5 ± 0.77 | 70.31 ± 0.59 | 75.7 ± 0.78 | 80 ± 0.91 | 85.3 ± 0.87 | 88.4 ± 0.99 | 0.87 | 41 | 90.11 ± 0.75 | 88.21 ± 0.81 | 72.48 ± 0.64 | 69.98 ± 0.68 | CC(C)=C1C/C=C(\C)CC/C=C(\C)CC1OC(=O)/C=C\c1ccccc1 (centres unmarked) [Compound 3e, (Z)-(3E,7E)-3,7-dimethyl-10-(propan-2-ylidene)cyclodeca-3,7-dien-1-yl-3-phenylacrylate]

Continued, compound first:

Row | SMILES | IC50 (Bel-7402 cells; 24 h) [µM] | IC50 (Bel-7402 cells; 48 h) [µM] | IC50 (Hela cells; 24 h) [µM] | IC50 (Hela cells; 48 h) [µM] | inhibition at 0.19 µM [1] [%] | inhibition at 0.39 µM [1] [%] | inhibition at 0.78 µM [1] [%] | inhibition at 1.56 µM [1] [%] | inhibition at 3.12 µM [1] [%] | inhibition at 6.25 µM [1] [%] | inhibition at 12.5 µM [1] [%] | inhibition at 25 µM [1] [%] | inhibition at 50 µM [1] [%] | inhibition at 100 µM [1] [%] | IC50 [1] [µM] | c-Met Inhibition rate (%) [1] [%] | IC50 (A549 cells; 24 h) [µM] | IC50 (A549 cells; 48 h) [µM] | IC50 (HepG2 cells; 24 h) [µM] | IC50 (HepG2 cells; 48 h) [µM]
4 | CC(C)=C1C/C=C(\C)CC/C=C(\C)CC1=O [Compound 1, germacrone, reference compound] | 173.5 ± 1.53 | 177 ± 1.97 | 160.7 ± 1.54 | 168 ± 1.81 | 23.4 ± 0.33 | 39.1 ± 0.45 | 47 ± 0.55 | 58.8 ± 0.61 | 65.4 ± 0.67 | 69.2 ± 0.77 | 73.7 ± 0.89 | 77.5 ± 0.97 | 82.1 ± 1.21 | 88 ± 1.01 | 1.15 | 27 | 180 ± 2.14 | 177 ± 1.87 | 170 ± 2.07 | 175 ± 1.88
5 | CC(C)=C1C/C=C(\C)CC/C=C(\C)CC1O (centres unmarked) [Compound 2, (3E,7E)-3,7-dimethyl-10-(propan-2-ylidene)cyclodeca-3,7-dienol] | 167 ± 1.91 | 166 ± 1.83 | 157.3 ± 1.47 | 163 ± 1.73 | 20 ± 0.27 | 34.9 ± 0.37 | 43.1 ± 0.52 | 55.2 ± 0.61 | 59.88 ± 0.53 | 64.16 ± 0.64 | 69.98 ± 0.59 | 74.21 ± 0.69 | 78.2 ± 0.88 | 81.2 ± 0.94 | 1.77 | 23 | 177 ± 1.8 | 185 ± 1.99 | 155 ± 1.75 | 161.5 ± 1.32
6 | CC(C)=C1C/C=C(\C)CC/C=C(\C)CC1OC(=O)c1ccc(C)cc1 (centres unmarked) [Compound 3b, (3E,7E)-3,7-dimethyl-10-(propan-2-ylidene)cyclodeca-3,7-dien-1-yl-4-methylbenzoate] | 75.9 ± 0.96 | 74.2 ± 0.83 | 83.64 ± 0.73 | 83.78 ± 0.76 | 35.6 ± 0.44 | 46.9 ± 0.51 | 54.47 ± 0.47 | 63.4 ± 0.66 | 67.05 ± 0.59 | 72.56 ± 0.67 | 77.8 ± 0.81 | 81.24 ± 0.77 | 86 ± 0.93 | 88.8 ± 1.11 | 0.56 | 56 | 84.85 ± 0.71 | 81.9 ± 0.88 | 68.2 ± 0.69 | 71.5 ± 0.82
7 | CC(=O)OC1C/C(C)=C/CC/C(C)=C/CC1=C(C)C (centres unmarked) [Compound 3a, (3E,7E)-3,7-dimethyl-10-(propan-2-ylidene)cyclodeca-3,7-dien-1-yl-acetate] | 157.3 ± 1.33 | 166.2 ± 1.51 | 149.3 ± 1.33 | 153 ± 1.65 | 26.3 ± 0.37 | 40 ± 0.43 | 47.2 ± 0.57 | 58.5 ± 0.69 | 65 ± 0.74 | 69 ± 0.76 | 74.6 ± 0.81 | 79.3 ± 0.85 | 84.3 ± 0.93 | 86.9 ± 0.97 | 1.06 | 31 | 162.2 ± 1.55 | 169 ± 1.74 | 147.7 ± 1.47 | 152 ± 1.71
